# Results reported in paper PMC5474674, “D-BMAP18 Antimicrobial Peptide Is Active In vitro, Resists to Pulmonary Proteases but Loses Its Activity in a Murine Model of Pseudomonas aeruginosa Lung Infection” (Frontiers in Chemistry, 2017).
# Where a SMILES comes first, the peptide text is derived from it. [ ]: non-standard residue; d: D form.
# Key:
# [1] = tested on: S. aureus SA1; conditions: D-BMAP18; strain SA1; broth microdilution, MH broth, 37°C 24 h; n = 6
# Procedure: MIC values were determined using the broth microdilution method. Briefly, serial 2-fold dilutions of each peptide were prepared in Mueller-Hinton broth (MH; Difco) and aliquoted in round-bottom 96 well microtiter plates (Sarstedt). Each well was inoculated with a standardized inoculum to achieve a final test concentration of about 5 × 10^5 CFU/ml. […] To calculate the MBC, following the 24 h-incubation of the MIC assay, 25 μl of broth from clear wells were plated on MH agar plates, and incubated at 37°C for 24 h. MBC was defined as the lowest concentration of the peptide killing at least 99.9% of the original inoculum.
# [2] = tested on: P. aeruginosa PA10; assay: MIC/MBC broth microdilution; format: cell-based, Pseudomonas aeruginosa; conditions: D-BMAP18, strain PA10, n = 6
# Procedure: (§1) MIC values were determined using the broth microdilution method.
# [3] = tested on: P. aeruginosa RP73; assay: MIC/MBC broth microdilution; format: cell-based, Pseudomonas aeruginosa; conditions: D-BMAP18, strain RP73, n = 6
# Procedure: as §1
# [4] = tested on: P. aeruginosa PA09; assay: MIC/MBC broth microdilution; format: cell-based, Pseudomonas aeruginosa; conditions: D-BMAP18, strain PA09, n = 6
# Procedure: as §1
# [5] = tested on: P. aeruginosa PA14; assay: MIC/MBC broth microdilution; format: cell-based, Pseudomonas aeruginosa; conditions: D-BMAP18, strain PA14, n = 6
# Procedure: as §1
# [6] = tested on: P. aeruginosa PA22; assay: MIC/MBC broth microdilution; format: cell-based, Pseudomonas aeruginosa; conditions: D-BMAP18, strain PA22, n = 6
# Procedure: as §1
# [7] = tested on: P. aeruginosa PA31; assay: MIC/MBC broth microdilution; format: cell-based, Pseudomonas aeruginosa; conditions: D-BMAP18, strain PA31, n = 6
# Procedure: as §1
# [8] = tested on: P. aeruginosa PA01; assay: MIC/MBC broth microdilution; format: cell-based, Pseudomonas aeruginosa; conditions: D-BMAP18, strain PA01, n = 6
# Procedure: as §1
# [9] = tested on: P. aeruginosa PA03; assay: MIC/MBC broth microdilution; format: cell-based, Pseudomonas aeruginosa; conditions: D-BMAP18, strain PA03, n = 6
# Procedure: as §1
# [10] = tested on: P. aeruginosa PA07; assay: MIC/MBC broth microdilution; format: cell-based, Pseudomonas aeruginosa; conditions: D-BMAP18, strain PA07, n = 6
# Procedure: as §1
# [11] = tested on: P. aeruginosa PA08; assay: MIC/MBC broth microdilution; format: cell-based, Pseudomonas aeruginosa; conditions: D-BMAP18, strain PA08, n = 6
# Procedure: as §1
# [12] = tested on: S. aureus SA7; assay: MIC broth microdilution; format: cell-based, Staphylococcus aureus; conditions: D-BMAP18, strain SA7, MH broth, 37°C 24 h, n = 6
# Procedure: as §1
# [13] = tested on: S. aureus SA5; assay: MIC broth microdilution; format: cell-based, Staphylococcus aureus; conditions: D-BMAP18, strain SA5, MH broth, 37°C 24 h, n = 6
# Procedure: as §1
# [14] = tested on: S. aureus SA4; assay: MIC broth microdilution; format: cell-based, Staphylococcus aureus; conditions: D-BMAP18, strain SA4, MH broth, 37°C 24 h, n = 6
# Procedure: as §1
# [15] = tested on: S. aureus SA3; assay: MIC broth microdilution; format: cell-based, Staphylococcus aureus; conditions: D-BMAP18, strain SA3, MH broth, 37°C 24 h, n = 6
# Procedure: as §1
# [16] = tested on: P. aeruginosa; format: cell-based, Pseudomonas aeruginosa; conditions: 24 h
# Procedure: P. aeruginosa, S. maltophilia, and Staphylococcus aureus strains were originally isolated from respiratory specimens of CF patients admitted to the “Bambino Gesù” Children Hospital in Rome and previously tested with AMPs (Pompilio et al., [2012]). P. aeruginosa RP73, and PAO1 were tested as reference strains.
# as §1
# [17] = broth microdilution, MH broth, 37°C 24 h
# [18] = kills at least 99.9% of inoculum
compound,measurement,setting,value
CC(C)C[C@@H](NC(=O)[C@@H](CCCCN)NC(=O)[C@@H](CCCCN)NC(=O)[C@@H](Cc1ccccc1)NC(=O)[C@@H](CC(C)C)NC(=O)[C@@H](CCCCN)NC(=O)[C@@H](CCCCN)NC(=O)[C@@H](Cc1ccccc1)NC(=O)[C@@H](CCCCN)NC(=O)[C@@H](CCCCN)NC(=O)[C@@H](CCCNC(=N)N)NC(=O)[C@@H](Cc1ccccc1)NC(=O)[C@@H](CCCNC(=N)N)NC(=O)[C@@H](CCCCN)NC(=O)[C@@H](Cc1ccccc1)NC(=O)[C@@H](CCCNC(=N)N)NC(=O)CN)C(=O)N[C@H](CO)C(N)=O [D-BMAP18] (H-G[dR][dF][dK][dR][dF][dR][dK][dK][dF][dK][dK][dL][dF][dK][dK][dL][dS]-NH2),MIC,[1],>32 µg/mL
same,MIC,[2]; [17],16 µg/mL
same,MBC,[2]; [18],32 µg/mL
same,MIC,[3]; [17],4 µg/mL
same,MBC,[3]; [18],8 µg/mL
same,MIC,[4]; [17],16 µg/mL
same,MBC,[4]; [18],32 µg/mL
same,MIC,[5]; [17],16 µg/mL
same,MBC,[5]; [18],32 µg/mL
same,MIC,[6]; [17],4 µg/mL
same,MBC,[6]; [18],32 µg/mL
same,MIC,[7]; [17],16 µg/mL
same,MBC,[7]; [18],32 µg/mL
same,MIC,[8]; [17],8 µg/mL
same,MBC,[8]; [18],32 µg/mL
same,MIC,[9]; [17],8 µg/mL
same,MBC,[9]; [18],8 µg/mL
same,MIC,[10]; [17],8 µg/mL
same,MBC,[10]; [18],8 µg/mL
same,MIC,[11]; [17],8 µg/mL
same,MBC,[11]; [18],16 µg/mL
same,MIC,[12],>32 µg/mL
same,MIC,[13],>32 µg/mL
same,MIC,[14],>32 µg/mL
same,MIC,[15],>32 µg/mL
same,MIC90,[16],16 µg/mL
